Entries after “also recorded” stand apart in the source; their conditions may differ. Counter-ions that a name gives are not always drawn.
How the values were obtained:
[1] = tested on: NPC1 protein in GM18420 (P1007A/IVS23+4delA); experiment: EndoH-resistant NPC1 by western blot, GM18420 fibroblasts; type: cell-based, human; conditions: 400 μM, 5 days
Description: (§1) PNGase cleaves all glycans from the NPC1 protein regardless of maturation status and is included as a control. EndoH sensitive, immature NPC1 is seen in untreated GM18453 extracts. (B) Quantification of the EndoH resistant NPC1, shown as arimoclomol treated relative to untreated cells. Cells were treated for 5 days with 400 μM arimoclomol. Average of three independent experiments, mean±SD. Pairwise t-test (p: *<0.05). The data are further described in Example 2. […]
(§2) Fibroblasts were seeded one day prior to treatment (day −1) with either 400 μM arimoclomol or PBS (control). […] Protein concentration for each sample was quantified with a BCA assay kit. […]
(§3) Proteins were resolved by SDS-PAGE and detected with Western blot (NPC1&tubulin).
(§4) For the quantification of mature and immature forms of NPC1 as shown in FIGS. 5A-B, membranes were imaged and protein bands for the immature (EndoH sensitive) and mature (EndoH resistant) forms of NPC1 (180-250 kDa) and tubulin (50 kDa) were quantified using ImageJ software. […] The fold change of EndoH-resistant NPC1 protein after arimoclomol treatment relative to PBS-treated (untreated) control within each cell line was quantified. […]

[2] = tested on: patients with Niemann-Pick disease, type C (NPC); experiment: 12-month randomized, double-blind, placebo-controlled phase 2/3 trial of arimoclomol in NPC: clinical efficacy endpoints; type: in vivo, human; parameters: key to Change from baseline in 5-domain NPCCSS score, treatment difference / Change in 5-domain NPCCSS score from baseline at 12 months, mean change / Change in 5-domain NPCCSS score, mean change / Change from baseline in 5-domain NPCCSS score, LSMean: 5-domain NPCCSS points (total 0–25, higher = more severe impairment); conditions: for Change from baseline in 5-domain NPCCSS score, LSMean / Change from baseline in 5-domain NPCCSS score, treatment difference: patients with ER genotype; for Change in 5-domain NPCCSS score, mean change: 12 months
Description: Patients enrolled in the trial were stratified by use of miglustat at baseline. Patients in both strata were randomized 2:1 to receive arimoclomol or placebo.
Routine clinical care was maintained throughout the trial (including administration of miglustat). Each participant was randomized to receive arimoclomol or placebo three times daily. Arimoclomol (calculated as free base) was administered orally or by feeding tube at 93-372 mg/day based on the patient's body weight up to the estimated equivalence of 372 mg/day for adults (body weight>55 kg) or of 124 mg three times a day.
During the 12-month treatment phase, efficacy assessments for the primary endpoint, the 5-domain NPCCSS score, and for the non-disease specific Clinical Global Impression-Improvement scale (CGI-I) scores were performed at baseline and after 3, 6, 9, and 12 months of treatment; all other efficacy and biomarker assessments were performed at baseline and after 6 and 12 months of treatment.
Primary endpoint: The primary endpoint was change from baseline in NPC severity at 12 months as assessed by the 5-domain NPCCSS score, an abbreviated assessment tool originating from the 17 domain NPCCSS score developed by Yanjanin et al., as described herein. The fully validated 5-domain NPCCSS score comprises the domains determined to be most clinically relevant to patients, caregivers, and clinicians: ambulation, cognition, fine motor skills, speech, and swallowing. The total aggregated 5-domain NPCCSS score ranges from 0 to 25, with a higher score indicating more severe clinical impairment.
Subgroup analyses of primary endpoint: NPC is a heterogeneous disease, and patients aged 2 to 18 years present with a large spectrum of disease presentations. The group of children<4 years old includes patients with mild manifestations and patients with aggressive, early fatal disease. As this group is particularly heterogeneous, a subgroup of patients ≥4 years of age was predefined with the population of study participants.
In the EU, miglustat is indicated for the treatment of progressive neurological manifestations in patients with NPC. However, not all patients are candidates for miglustat treatment, and it is recommended that the benefit of treatment should be evaluated on a regular basis (e.g., every six months). An analysis of the subpopulation of patients receiving miglustat was prespecified to elucidate the effect of arimoclomol in patients on background miglustat treatment. Overall, the subgroups of patients ≥4 years of age, and patients on miglustat treatment, were expected to be more homogeneous with respect to baseline demographics and disease characteristics and therefore more suitable for comparison.
In the first post hoc analysis, subjects with double functional null mutations in NPC1 (NPC1 genotype of Functional Null/Functional Null) were excluded.
In the second post hoc analysis, only subjects with annual severity increment score (ASIS) 0.5-2.0 were included.
In an additional post hoc analysis, only subjects with at least one ER type mutation were included.

[3] = tested on: HSPA1A, the gene encoding HSP70; experiment: HSPA1A expression in NPC patient fibroblasts treated with arimoclomol; type: cell-based, human; conditions: NPC patient fibroblasts I1061T/I1061T; various concentrations; days 2 and 5
Description: The expression level of HSP1A1 is quantified on days 2 and day 5. The data are further described in Example 2.
(§5) Fibroblasts were seeded one day prior to treatment (day −1) with either 400 μM arimoclomol or PBS (control). Cells were treated continuously with arimoclomol from day 0 to day 5, with a media change on day 3, and harvested on day 5. The cells thus experienced 5 days of continued arimoclomol treatment. Cells were subsequently lysed with RIPA buffer containing protease and phosphatase inhibitors. Protein concentration for each sample was quantified with a BCA assay kit.

[4] = tested on: NPC1 protein; experiment: Total NPC1 protein by western blot in NPC patient fibroblast cell lines; type: cell-based, human; conditions: patient fibroblasts with the most common NPC1 mutations; 50-400 μM, five days
Description: The data are further described in Example 2.
as §5

[5] = evidenced by presence in cerebrospinal fluid of treated ALS patients; cited from earlier work
[6] = tested on: NPC1 protein in GM18453 (I1061T/I1061T); experiment: EndoH-resistant NPC1 by western blot, GM18453 fibroblasts; type: cell-based, human; conditions: 400 μM, 5 days
Description: as §1, §2, §3, §4

[7] = tested on: patients with Niemann-Pick disease, type C (NPC); experiment: Phase 2/3 NPC trial: safety evaluation
Description: Study Procedures: the screening visit (visit 1) included a baseline assessment, randomization assignment, and pharmacokinetic (PK) assessment. The first dose of arimoclomol or placebo was given within 1 week of randomization. Safety assessments were performed at visit 2 (7-14 days after start of treatment) and then every 3 months during the blinded period (visits 3-6).

[O-][n+]1cccc(/C(Cl)=N/OC[C@H](O)CN2CCCCC2)c1 [Arimoclomol, (+)-(R)-N-[2-hydroxy-3-(1-piperidinyl)-propoxy]-pyridine-1-oxide-3-carboximidoyl chloride citrate]
Amount of EndoH-resistant (correctly processed) NPC1 relative to PBS-treated cells [1]: increased
SARA score change from baseline to 12 months, LS mean ([2]; human, in vivo): 1.06
SARA score change from baseline to 12 months, arimoclomol vs placebo: difference ([2]; human, in vivo): 0.28
Change in 5-domain NPCCSS score from baseline at 12 months, mean change ([2]; overall population, arimoclomol 93-372 mg/day (free base) t.i.d.): 0.80
Change from baseline in 5-domain NPCCSS score, LSMean ([2]; month 3): −0.29
Change from baseline in 5-domain NPCCSS score, treatment difference ([2]; month 3): −1.60
Change from baseline in 5-domain NPCCSS score, LSMean ([2]; month 6): 0.61
Change from baseline in 5-domain NPCCSS score, treatment difference ([2]; month 6): −2.19
Change from baseline in 5-domain NPCCSS score, LSMean ([2]; month 9): 0.86
Change from baseline in 5-domain NPCCSS score, treatment difference ([2]; month 9): −3.44
Change from baseline in 5-domain NPCCSS score, LSMean ([2]; month 12): 0.52
Change from baseline in 5-domain NPCCSS score, treatment difference ([2]; month 12): −4.79
Change in 5-domain NPCCSS score, mean change ([2]; post hoc: ASIS within 0.5 and 2): 0.19
Change in 5-domain NPCCSS score, mean change ([2]; post hoc: excluding individuals with double functional null mutations): 0.47
Expression of HSPA1A relative to PBS-treated control [3]: time- and dose-dependent increase
Amount of total NPC1 protein relative to PBS-treated control [4]: increased
Blood-brain barrier passage [5]: crosses the blood-brain barrier
Amount of EndoH-resistant (correctly processed) NPC1 relative to PBS-treated cells [6]: increased
Amount of EndoH-resistant (correctly processed) NPC1 relative to PBS-treated cells ([6]; listed as arimoclomol): increased; also recorded: clear increase of correctly matured NPC1 protein
Tolerability ([7]; 12-month trial): well tolerated
Patients with increase in serum creatinine level over 1.5 times their baseline values ([7]; arimoclomol group): Six
Patients with serum creatinine levels over twice baseline values ([7]; arimoclomol group): two
Patients with TEAEs ([7]; arimoclomol group, 30/34): 88.2%
Changes in vital signs, electrocardiograms, or other laboratory values during the trial ([7]; in vivo): no significant changes
TEAEs occurring more frequently with arimoclomol versus placebo ([7]; in vivo): Upper respiratory tract infection and decreased weight
Patients with TEAEs that led to trial drug discontinuation ([7]; three patients, four TEAEs (urticaria, angioedema, increased blood creatinine)): 8.8%
